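GI50 marks 50% less growth. TGI denotes the concentration required for complete inhibition of growth.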
Columns and labels:
Assay in all cases: NCI anticancer screen, dose series, 384-well format
[1] = test system: ACHN renal
[2] = test system: A549 NSCLC
[3] = test system: SF-295 CNS
[4] = test system: OVCAR-3 ovarian
[5] = test system: CCRF-CEM leukemia
[6] = test system: SK-MEL-2 melanoma
[7] = test system: T-47D breast
[8] = test system: DU-145 prostate
[9] = test system: UO-31 renal
[10] = test system: U251 glioblastoma
[11] = test system: SW-620 colon
[12] = test system: NCI-H460 NSCLC
[13] = test system: A498 renal
[14] = test system: SK-OV-3 ovarian
[15] = test system: LOX IMVI melanoma
[16] = test system: K-562 leukemia
[17] = test system: HL-60(TB) leukemia
[18] = test system: PC-3 prostate
[19] = test system: OVCAR-4 ovarian
[20] = test system: HT29 colon
[21] = test system: HCT-15 colon
[22] = test system: TK-10 renal
[23] = test system: SK-MEL-28 melanoma
[24] = test system: KM12 colon
[25] = test system: SF-539 CNS
[26] = test system: MDA-MB-435 melanoma
[27] = test system: MOLT-4 leukemia
[28] = test system: COLO 205 colon
[29] = test system: SR leukemia
[30] = test system: RPMI-8226 leukemia
[31] = test system: HCC-2998 colon
[32] = test system: OVCAR-5 ovarian
[33] = test system: RXF 393 renal
[34] = test system: BT-549 breast
[35] = test system: IGROV1 ovarian
[36] = test system: 786-0 renal
[37] = test system: NCI/ADR-RES ovarian
[38] = test system: NCI-H522 lung
[39] = test system: SK-MEL-5 melanoma
[40] = test system: UACC-62 melanoma
[41] = test system: NCI-H226 lung
[42] = test system: MCF7 breast
[43] = test system: SNB-19 CNS
[44] = test system: HCT-116 colon
[45] = test system: OVCAR-8 ovarian
[46] = test system: SN12C renal
[47] = test system: SF-268 CNS
[48] = test system: HOP-92 NSCLC
[49] = test system: CAKI-1 renal
[50] = test system: MDA-MB-468 breast
[51] = test system: UACC-257 melanoma
[52] = test system: MDA-MB-231 breast
[53] = test system: NCI-H322M lung
[54] = test system: M14 melanoma
[55] = test system: MALME-3M melanoma

C=CC(=O)Nc1cc(Nc2ncc(C(=O)OC(C)C)c(-c3cn(C)c4ccccc34)n2)c(OC)cc1N(C)CCN(C)C
GI50 [1]: 64.7 nM | TGI [1]: 1850 nM | GI50 [2]: 1450 nM | TGI [2]: 4670 nM | GI50 [3]: 7040 nM | TGI [3]: 19500 nM | GI50 [4]: 1200 nM | TGI [4]: 2680 nM | GI50 [5]: 1810 nM | TGI [5]: 3200 nM | GI50 [6]: 1570 nM | TGI [6]: 2910 nM | GI50 [7]: 1280 nM | TGI [7]: 2560 nM | GI50 [8]: 1150 nM | TGI [8]: 6140 nM | GI50 [9]: 1020 nM | TGI [9]: 2190 nM | GI50 [10]: 1750 nM | TGI [10]: 3130 nM | GI50 [11]: 1920 nM | TGI [11]: 3340 nM | GI50 [12]: 1630 nM | TGI [12]: 2980 nM | GI50 [13]: 1250 nM | TGI [13]: 2530 nM | GI50 [14]: 50 nM | TGI [14]: 2040 nM | GI50 [15]: 2220 nM | TGI [15]: 3670 nM | GI50 [16]: 1930 nM | TGI [16]: 3340 nM | GI50 [17]: 1650 nM | TGI [17]: 3000 nM | GI50 [18]: 2100 nM | TGI [18]: 4080 nM | GI50 [19]: 1800 nM | TGI [19]: 4210 nM | GI50 [20]: 1670 nM | TGI [20]: 3050 nM | GI50 [21]: 1830 nM | TGI [21]: 3230 nM | GI50 [22]: 63.5 nM | TGI [22]: 1710 nM | GI50 [23]: 1710 nM | TGI [23]: 3080 nM | GI50 [24]: 1760 nM | TGI [24]: 3210 nM | GI50 [25]: 1790 nM | TGI [25]: 3180 nM | GI50 [26]: 1830 nM | TGI [26]: 3230 nM | GI50 [27]: 1130 nM | TGI [27]: 2330 nM | GI50 [28]: 1740 nM | TGI [28]: 3130 nM | GI50 [29]: 1100 nM | TGI [29]: 2290 nM | GI50 [30]: 1190 nM | TGI [30]: 2420 nM | GI50 [31]: 1470 nM | TGI [31]: 2800 nM | GI50 [32]: 4180 nM | TGI [32]: > 100000 nM | GI50 [33]: 1450 nM | TGI [33]: 2760 nM | GI50 [34]: 1910 nM | TGI [34]: 3480 nM | GI50 [35]: 1010 nM | TGI [35]: 2310 nM | GI50 [36]: 1300 nM | TGI [36]: 2580 nM | GI50 [37]: 1550 nM | TGI [37]: 4340 nM | GI50 [38]: < 10 nM | TGI [38]: 1400 nM | GI50 [39]: 1890 nM | TGI [39]: 3290 nM | GI50 [40]: 1630 nM | TGI [40]: 2990 nM | GI50 [41]: 1980 nM | TGI [41]: 4640 nM | GI50 [42]: 1710 nM | TGI [42]: 3110 nM | GI50 [43]: 3990 nM | TGI [43]: 15100 nM | GI50 [44]: 1640 nM | TGI [44]: 3000 nM | GI50 [45]: 1750 nM | TGI [45]: 3310 nM | GI50 [46]: 1630 nM | TGI [46]: 3380 nM | GI50 [47]: 1570 nM | TGI [47]: 2960 nM | GI50 [48]: 1450 nM | TGI [48]: 2860 nM | GI50 [49]: 1040 nM | TGI [49]: 2250 nM | GI50 [50]: 26 nM | TGI [50]: 1330 nM | GI50 [51]: 1500 nM | TGI [51]: 2830 nM | GI50 [52]: 1790 nM | TGI [52]: 3240 nM | GI50 [53]: 14.3 nM | TGI [53]: 1760 nM | GI50 [54]: 1760 nM | TGI [54]: 3140 nM | GI50 [55]: 1690 nM | TGI [55]: 3060 nM

Reference: PubChem BioAssay (NCI)
